For ten compounds, IC50 results are on record in patent US4562292A, “Trifluoromethylketone sulfides and reversible enzyme inhibition therewith” (priority 1983, dated 1985).

pIC50: −log10 of the molar value. Where two headings read alike, the source gives them in different places. Where only a bound is given, the exact number is not on record here.

Assay [1] addresses JH esterase. As to the kind of experiment: JH esterase inhibition in T. ni hemolymph. Particulars: diluted T. ni larval plasma, 10 min preincubation at 30° C., 5×10^-6 M JH III; read-out: I50 (M) JHE. It is filed as biochemical, Trichoplusia ni. On the procedure:
JH esterase activity was monitored in the hemolymph collected from last stadium day two larvae of the cabbage looper, Trichoplusia ni, Lepidoptera, Noctuidae. The plasma was diluted (v/v) in sodium phosphate buffer (pH 7.4, 0.08M with 0.01% [w/v] phenyulthiourea) and frozen at -60° C. until used. The inventive compounds were added in 1μ liter of ethanol to 100μ liters of the diluted plasma and preincubated for 10 min at 30° C. before adding substrate (ClO^3 H JH III New England Nuclear and unlabeled E, E JH III, Calbiochem) in 1μ liter of ethanol to give a final concentration of 5×10^-6 M JH III containing about 30,000 dpm/assay (Hammock and Sparks, Anal. Biochem. 82, 573 (1977).
(§1) In each case, at least three replicates of each inhibitor concentration were used. A minimum of two inhibitor concentrations showing greater and less than 50% inhibition were used to determine the I50 values from semilog plots except in the case of weaker inhibitors. Only those points on the apparently linear portion of the curve were used to calculate the I50 's.

The subject of assay [2] is α-NAE. As to the kind of experiment: α-Naphtyl acetate (α-NA) hydrolysis in T. ni prepupal hemolymph. The assay is classed as biochemical, Trichoplusia ni. Particulars: hemolymph of T. ni prepupae, substrate 2.3×10^-4 M; read-out: I50 (M) α-NAE. On the procedure: α-Naphtyl acetate (α-NA) hydrolysis was monitored similarly in the hemolymph of prepupae of T. ni (fifth stadium, day 4) with a final substrate of 2.3×10^-4 M. Plasma dilutions and incubation times were chosen to give a hydrolysis rate which was linear with time.
as §1

Assay [3] addresses T1, Type VI-S electric eel AChE (Electrophorus electricus, UniProt O42275).
T1 construct: purchased Sigma Type VI-S
As to the kind of experiment: acetylcholinesterase (AChE) activity. The assay is classed as biochemical. Particulars: for IC50: acetylthiocholine iodide 5×10^-4 M, 37° C., * = greater than, read-out: I50 (M) AChE. On the procedure:
For acetylcholinesterase (AChE) activity, 20μ liters of acetylthiocholine iodide (Sigma) in sodium phosphate buffer (0.05M, ph 7.2) was added to Type VI-S electric eel AChE (Sigma, 10 ng with 2-400 units/mg protein) in 3 ml the same buffer to give a final substrate concentration of 5×10^-4 M. The assay was run at 37° C.
(§2) For AChE, trypsin and α-ChT, the inhibitor was added to ethanol 10 min prior to the substrate and preincubated at the same temperature used for the actual assay. In no case was greater than 1% v/v ethanol added, and ethanol controls were always run. For the spectrophotometric enzyme assays, initial studies were run on a Varian-Cary 219 UV/visible spectrophotometer, while subsequent assays were run on a Gilford manual EIA reading using disposable cuvettes.
as §1

Assay [4] addresses T2, bovine pancreatic type III trypsin (Bos taurus, UniProt P00760).
T2 construct: purchased Sigma type III
T2 sequence (P00760 24-246): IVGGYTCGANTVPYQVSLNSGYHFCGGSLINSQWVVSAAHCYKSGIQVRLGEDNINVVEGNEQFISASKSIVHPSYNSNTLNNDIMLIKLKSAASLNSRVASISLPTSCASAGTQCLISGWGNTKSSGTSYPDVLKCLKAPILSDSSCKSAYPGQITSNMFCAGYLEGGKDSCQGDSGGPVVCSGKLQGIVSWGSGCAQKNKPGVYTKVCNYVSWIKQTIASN
As to the kind of experiment: trypsin activity. The assay is classed as biochemical. Particulars: for IC50: p-toluenesulfonyl-L-arginine methyl ester 1×10^-4 M, 25° C., read-out: I50 (M) Trypsin (*greater than). The protocol:
For trypsin, 1.5 ml of p-toluenesulfonyl-L-arginine methyl ester (Sigma) in Tris HCl buffer (pH 8.1, 0.04M with 0.1M CaCl2) was added to 1.5 ml of the same buffer containing bovine pancreatic type III trypsin (Sigma, 0.24 μg) to give a final substrate concentration of 1×10^-4 M. The assay was performed at 25° C.
as §2, §1

T1 sequence (O42275 24-633): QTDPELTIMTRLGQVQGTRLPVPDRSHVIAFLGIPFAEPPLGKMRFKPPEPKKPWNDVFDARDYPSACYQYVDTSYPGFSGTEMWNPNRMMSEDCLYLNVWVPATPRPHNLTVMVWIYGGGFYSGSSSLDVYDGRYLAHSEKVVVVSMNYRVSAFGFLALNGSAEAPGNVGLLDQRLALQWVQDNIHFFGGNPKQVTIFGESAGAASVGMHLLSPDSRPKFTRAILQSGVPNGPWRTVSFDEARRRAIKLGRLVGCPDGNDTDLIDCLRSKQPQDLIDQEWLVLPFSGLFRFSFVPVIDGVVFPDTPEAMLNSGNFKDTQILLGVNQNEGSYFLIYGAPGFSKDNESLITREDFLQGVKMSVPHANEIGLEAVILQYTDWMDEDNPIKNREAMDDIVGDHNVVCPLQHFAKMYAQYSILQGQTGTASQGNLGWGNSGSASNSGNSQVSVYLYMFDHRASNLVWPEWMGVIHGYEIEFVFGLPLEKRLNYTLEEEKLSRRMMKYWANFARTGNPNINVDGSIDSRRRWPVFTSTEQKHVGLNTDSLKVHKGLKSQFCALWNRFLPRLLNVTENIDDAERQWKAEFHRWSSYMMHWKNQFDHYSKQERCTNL

Turning to `CCCCCCCCCSCC(=O)C(F)(F)F` [Compound 2], the IC50 in assay [1] is 3.7e-09 M; in assay [2] it was 6.3e-06 M; in assay [3], 9.3e-07 M; in assay [4], above 0.0001 M.
For `CCCCCCCCCCSCC(=O)C(F)(F)F` [Compound 3], the IC50 stood at 2e-08 M in assay [1], 1e-05 M in assay [2], 3.2e-06 M in assay [3] and 8.2e-05 M in assay [4].
The matching figures for `CCCCCCCCCCCSCC(=O)C(F)(F)F` [Compound 4]: 4.3e-08 M, 4.5e-05 M, 2.6e-06 M and above 0.0001 M.
As to `CCCCCCCCCCCCSCC(=O)C(F)(F)F` [Compound 5], the IC50 in assay [1] is 1.5e-08 M; in assay [2], 9.7e-05 M; in assay [3], 2.2e-06 M; in assay [4], above 0.0001 M.
In the case of `O=C(CSC1CCCCC1)C(F)(F)F` [Compound 6], the IC50 in assay [1] is 5.2e-06 M; in assay [2] it was 7.1e-07 M; in assay [3] it was 1.8e-06 M; in assay [4], above 0.0001 M.
The matching figures for `Cc1ccccc1SCC(=O)C(F)(F)F` [Compound 9]: 4.3e-06 M, 6e-07 M, 3.7e-07 M and 8.5e-05 M.
On the same counts, the results for `Cc1ccc(SCC(=O)C(F)(F)F)cc1` [Compound 11] are 1.1e-07 M, 1.6e-06 M, 6.1e-07 M and above 0.0001 M.
On the same counts, the results for `CC(C)c1ccccc1SCC(=O)C(F)(F)F` [Compound 12] are 3.4e-07 M, 2.7e-07 M, 4.9e-08 M and 4.7e-05 M.
On to `O=C(CSc1ccc(Br)cc1)C(F)(F)F` [Compound 20], for which the IC50 in assay [1] is 4.1e-07 M; in assay [2], 4.9e-06 M; in assay [3], 2.4e-06 M; in assay [4], above 1e-05 M.
In the case of `COC(C)(C)CCC/C(C)=C/CCSCC(=O)C(F)(F)F` [Compound 32, (E)-8,12-Dimethyl-12-methoxy-4-Thia-1,1,1-trifluorotridec-7-en-2-one], the IC50 in assay [1] stood at 3.1e-09 M; in assay [2], 1.9e-06 M. Further, the pIC50 in assay [3] and in assay [4] was below 4.00 throughout.
